Test: xn = mol fraction of the nth substance listed
Details: Liquid, Vibrating tube method

COC(=O)OC [dimethyl carbonate] + CCCO
Details	mass density [kg/m3]
288.15 K, 25000 kPa, x1 = 0.7006	1019.07
288.15 K, 25000 kPa, x1 = 0.7471	1031.24
288.15 K, 25000 kPa, x1 = 0.7989	1044.87
288.15 K, 25000 kPa, x1 = 0.8491	1057.97
288.15 K, 25000 kPa, x1 = 0.8993	1071.18
288.15 K, 25000 kPa, x1 = 0.9249	1077.81
288.15 K, 25000 kPa, x1 = 0.9489	1083.9
288.15 K, 25000 kPa, x1 = 0.9743	1090.45
288.15 K, 25000 kPa, x1 = 1	1096.99
288.15 K, 30000 kPa, x1 = 0.0273	835.17
288.15 K, 30000 kPa, x1 = 0.0506	842.03
288.15 K, 30000 kPa, x1 = 0.0755	849.38
288.15 K, 30000 kPa, x1 = 0.1007	856.69
288.15 K, 30000 kPa, x1 = 0.1495	870.78
288.15 K, 30000 kPa, x1 = 0.2003	885.32
288.15 K, 30000 kPa, x1 = 0.2529	900.28
288.15 K, 30000 kPa, x1 = 0.2993	913.34
288.15 K, 30000 kPa, x1 = 0.3497	927.39
288.15 K, 30000 kPa, x1 = 0.401	941.6
288.15 K, 30000 kPa, x1 = 0.4509	955.29
288.15 K, 30000 kPa, x1 = 0.5002	968.75
288.15 K, 30000 kPa, x1 = 0.5498	982.22
288.15 K, 30000 kPa, x1 = 0.5996	995.65
288.15 K, 30000 kPa, x1 = 0.6499	1009.15
288.15 K, 30000 kPa, x1 = 0.7006	1022.61
288.15 K, 30000 kPa, x1 = 0.7471	1034.8
288.15 K, 30000 kPa, x1 = 0.7989	1048.43
288.15 K, 30000 kPa, x1 = 0.8491	1061.59
288.15 K, 30000 kPa, x1 = 0.8993	1074.81
288.15 K, 30000 kPa, x1 = 0.9249	1081.44
288.15 K, 30000 kPa, x1 = 0.9489	1087.54
288.15 K, 30000 kPa, x1 = 0.9743	1094.08
288.15 K, 30000 kPa, x1 = 1	1100.63
288.15 K, 35000 kPa, x1 = 0.0273	838.02
288.15 K, 35000 kPa, x1 = 0.0506	844.93
288.15 K, 35000 kPa, x1 = 0.0755	852.29
288.15 K, 35000 kPa, x1 = 0.1007	859.6
288.15 K, 35000 kPa, x1 = 0.1495	873.75
288.15 K, 35000 kPa, x1 = 0.2003	888.35
288.15 K, 35000 kPa, x1 = 0.2529	903.32
288.15 K, 35000 kPa, x1 = 0.2993	916.38
288.15 K, 35000 kPa, x1 = 0.3497	930.49
288.15 K, 35000 kPa, x1 = 0.401	944.76
288.15 K, 35000 kPa, x1 = 0.4509	958.51
288.15 K, 35000 kPa, x1 = 0.5002	971.97
288.15 K, 35000 kPa, x1 = 0.5498	985.5
288.15 K, 35000 kPa, x1 = 0.5996	998.94
288.15 K, 35000 kPa, x1 = 0.6499	1012.45
288.15 K, 35000 kPa, x1 = 0.7006	1025.92
288.15 K, 35000 kPa, x1 = 0.7471	1038.16
288.15 K, 35000 kPa, x1 = 0.7989	1051.8
288.15 K, 35000 kPa, x1 = 0.8491	1065.02
288.15 K, 35000 kPa, x1 = 0.8993	1078.24
288.15 K, 35000 kPa, x1 = 0.9249	1084.88
288.15 K, 35000 kPa, x1 = 0.9489	1091.03
288.15 K, 35000 kPa, x1 = 0.9743	1097.53
288.15 K, 35000 kPa, x1 = 1	1104.08
288.15 K, 40000 kPa, x1 = 0.0273	840.76
288.15 K, 40000 kPa, x1 = 0.0506	847.68
288.15 K, 40000 kPa, x1 = 0.0755	855.09
288.15 K, 40000 kPa, x1 = 0.1007	862.4
288.15 K, 40000 kPa, x1 = 0.1495	876.61
288.15 K, 40000 kPa, x1 = 0.2003	891.27
288.15 K, 40000 kPa, x1 = 0.2529	906.24
288.15 K, 40000 kPa, x1 = 0.2993	919.36
288.15 K, 40000 kPa, x1 = 0.3497	933.52
288.15 K, 40000 kPa, x1 = 0.401	947.8
288.15 K, 40000 kPa, x1 = 0.4509	961.56
288.15 K, 40000 kPa, x1 = 0.5002	975.08
288.15 K, 40000 kPa, x1 = 0.5498	988.61
288.15 K, 40000 kPa, x1 = 0.5996	1002.11
288.15 K, 40000 kPa, x1 = 0.6499	1015.62
288.15 K, 40000 kPa, x1 = 0.7006	1029.15
288.15 K, 40000 kPa, x1 = 0.7471	1041.39
288.15 K, 40000 kPa, x1 = 0.7989	1055.05
288.15 K, 40000 kPa, x1 = 0.8491	1068.31
288.15 K, 40000 kPa, x1 = 0.8993	1081.55
288.15 K, 40000 kPa, x1 = 0.9249	1088.19
288.15 K, 40000 kPa, x1 = 0.9489	1094.34
288.15 K, 40000 kPa, x1 = 0.9743	1100.84
288.15 K, 40000 kPa, x1 = 1	1107.4
293.15 K, 100 kPa, x1 = 0.0273	811.13
293.15 K, 100 kPa, x1 = 0.0506	817.67
293.15 K, 100 kPa, x1 = 0.0755	824.75
293.15 K, 100 kPa, x1 = 0.1007	831.84
293.15 K, 100 kPa, x1 = 0.1495	845.58
293.15 K, 100 kPa, x1 = 0.2003	859.73
293.15 K, 100 kPa, x1 = 0.2529	874.29
293.15 K, 100 kPa, x1 = 0.2993	887.05
293.15 K, 100 kPa, x1 = 0.3497	900.71
293.15 K, 100 kPa, x1 = 0.401	914.47
293.15 K, 100 kPa, x1 = 0.4509	927.86
293.15 K, 100 kPa, x1 = 0.5002	940.97
293.15 K, 100 kPa, x1 = 0.5498	954.1
293.15 K, 100 kPa, x1 = 0.5996	967.18
293.15 K, 100 kPa, x1 = 0.6499	980.33
293.15 K, 100 kPa, x1 = 0.7006	993.49
293.15 K, 100 kPa, x1 = 0.7471	1005.43
293.15 K, 100 kPa, x1 = 0.7989	1018.72
293.15 K, 100 kPa, x1 = 0.8491	1031.57
293.15 K, 100 kPa, x1 = 0.8993	1044.49
293.15 K, 100 kPa, x1 = 0.9249	1051
293.15 K, 100 kPa, x1 = 0.9489	1057.07
293.15 K, 100 kPa, x1 = 0.9743	1063.49
293.15 K, 100 kPa, x1 = 1	1070.06
293.15 K, 5000 kPa, x1 = 0.0273	814.85
293.15 K, 5000 kPa, x1 = 0.0506	821.44
293.15 K, 5000 kPa, x1 = 0.0755	828.52
293.15 K, 5000 kPa, x1 = 0.1007	835.66
293.15 K, 5000 kPa, x1 = 0.1495	849.45
293.15 K, 5000 kPa, x1 = 0.2003	863.66
293.15 K, 5000 kPa, x1 = 0.2529	878.27
293.15 K, 5000 kPa, x1 = 0.2993	891.08
293.15 K, 5000 kPa, x1 = 0.3497	904.78
293.15 K, 5000 kPa, x1 = 0.401	918.61
293.15 K, 5000 kPa, x1 = 0.4509	932.05
293.15 K, 5000 kPa, x1 = 0.5002	945.21
293.15 K, 5000 kPa, x1 = 0.5498	958.38
293.15 K, 5000 kPa, x1 = 0.5996	971.52
293.15 K, 5000 kPa, x1 = 0.6499	984.67
293.15 K, 5000 kPa, x1 = 0.7006	997.89
293.15 K, 5000 kPa, x1 = 0.7471	1009.83
293.15 K, 5000 kPa, x1 = 0.7989	1023.17
293.15 K, 5000 kPa, x1 = 0.8491	1036.07
293.15 K, 5000 kPa, x1 = 0.8993	1049.04
293.15 K, 5000 kPa, x1 = 0.9249	1055.55
293.15 K, 5000 kPa, x1 = 0.9489	1061.62
293.15 K, 5000 kPa, x1 = 0.9743	1068.04
293.15 K, 5000 kPa, x1 = 1	1074.62
293.15 K, 10000 kPa, x1 = 0.0273	818.47
293.15 K, 10000 kPa, x1 = 0.0506	825.06
293.15 K, 10000 kPa, x1 = 0.0755	832.19
293.15 K, 10000 kPa, x1 = 0.1007	839.38
293.15 K, 10000 kPa, x1 = 0.1495	853.18
293.15 K, 10000 kPa, x1 = 0.2003	867.43
